Molecular target: T1, human serum albumin (HSA) (Homo sapiens, UniProt P02768)
T1 construct: gene ALB; serum albumin in HEPES pH 7.4
Assay: UV-Vis titration, Benesi-Hildebrand
Format: binding
Details: HEPES pH 7.4, 25 °C, DMSO < 1%
Text: UV-Vis titration, Benesi-Hildebrand on human serum albumin (HSA)

T1 sequence (P02768 25-609): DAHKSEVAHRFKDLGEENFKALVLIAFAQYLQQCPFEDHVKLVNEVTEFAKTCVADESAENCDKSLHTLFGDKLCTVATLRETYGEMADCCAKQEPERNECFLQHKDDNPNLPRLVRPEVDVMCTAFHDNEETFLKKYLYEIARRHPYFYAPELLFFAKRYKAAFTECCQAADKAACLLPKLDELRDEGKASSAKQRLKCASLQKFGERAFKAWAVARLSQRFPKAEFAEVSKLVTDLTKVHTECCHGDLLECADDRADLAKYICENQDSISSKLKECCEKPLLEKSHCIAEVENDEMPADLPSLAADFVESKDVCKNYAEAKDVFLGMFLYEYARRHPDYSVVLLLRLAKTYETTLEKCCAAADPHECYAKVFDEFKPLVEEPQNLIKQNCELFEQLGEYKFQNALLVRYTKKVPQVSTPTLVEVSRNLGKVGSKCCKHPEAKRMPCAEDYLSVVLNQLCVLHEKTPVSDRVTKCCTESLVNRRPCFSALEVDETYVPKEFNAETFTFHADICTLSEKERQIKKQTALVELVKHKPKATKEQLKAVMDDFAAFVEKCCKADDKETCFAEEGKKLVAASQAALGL

CCN(CC)CCNc1cc(NN=C2CCCc3cc(OC)ccc32)ncn1 [L1]
binding constant (Kb) to HSA: 9.92 × 10^4 dm^3/mol

COc1ccc2c(c1)CCCC2=NNc1cc(NCCN(C)C)ncn1 [L2]
binding constant (Kb) to HSA: 4.54 × 10^5 dm^3/mol

COc1ccc2c(c1)CCCC2=NNc1cc(NCCCN(C)C)ncn1 [L4]
binding constant (Kb): 6.82 × 10^4 dm^3/mol
